Source: patent US20120264735A1 (priority 2009, published 2012)
Counter-ions that a name gives are not always drawn.

Target: T1, c-Met kinase (recombinant c-Met) (Homo sapiens, UniProt P08581)
T1 construct: 0.27 nM recombinant c-Met
Assay: In vitro kinase assay I (homogeneous time-resolved fluorescence tyrosine kinase assay)
Type: biochemical
Procedure, shortened: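 Biotinylated peptide (0.5 μM) phosphorylated by 0.2 nM recombinant c-Met with 50 μM MgATP, 60 min at room temperature, pH 7.4, 5% DMSO. EDTA stop; HTRF read with Eu-anti-phosphotyrosine antibody and streptavidin-APC. IC50 from 4-parameter logistic fit.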

T1 sequence (P08581 25-1390): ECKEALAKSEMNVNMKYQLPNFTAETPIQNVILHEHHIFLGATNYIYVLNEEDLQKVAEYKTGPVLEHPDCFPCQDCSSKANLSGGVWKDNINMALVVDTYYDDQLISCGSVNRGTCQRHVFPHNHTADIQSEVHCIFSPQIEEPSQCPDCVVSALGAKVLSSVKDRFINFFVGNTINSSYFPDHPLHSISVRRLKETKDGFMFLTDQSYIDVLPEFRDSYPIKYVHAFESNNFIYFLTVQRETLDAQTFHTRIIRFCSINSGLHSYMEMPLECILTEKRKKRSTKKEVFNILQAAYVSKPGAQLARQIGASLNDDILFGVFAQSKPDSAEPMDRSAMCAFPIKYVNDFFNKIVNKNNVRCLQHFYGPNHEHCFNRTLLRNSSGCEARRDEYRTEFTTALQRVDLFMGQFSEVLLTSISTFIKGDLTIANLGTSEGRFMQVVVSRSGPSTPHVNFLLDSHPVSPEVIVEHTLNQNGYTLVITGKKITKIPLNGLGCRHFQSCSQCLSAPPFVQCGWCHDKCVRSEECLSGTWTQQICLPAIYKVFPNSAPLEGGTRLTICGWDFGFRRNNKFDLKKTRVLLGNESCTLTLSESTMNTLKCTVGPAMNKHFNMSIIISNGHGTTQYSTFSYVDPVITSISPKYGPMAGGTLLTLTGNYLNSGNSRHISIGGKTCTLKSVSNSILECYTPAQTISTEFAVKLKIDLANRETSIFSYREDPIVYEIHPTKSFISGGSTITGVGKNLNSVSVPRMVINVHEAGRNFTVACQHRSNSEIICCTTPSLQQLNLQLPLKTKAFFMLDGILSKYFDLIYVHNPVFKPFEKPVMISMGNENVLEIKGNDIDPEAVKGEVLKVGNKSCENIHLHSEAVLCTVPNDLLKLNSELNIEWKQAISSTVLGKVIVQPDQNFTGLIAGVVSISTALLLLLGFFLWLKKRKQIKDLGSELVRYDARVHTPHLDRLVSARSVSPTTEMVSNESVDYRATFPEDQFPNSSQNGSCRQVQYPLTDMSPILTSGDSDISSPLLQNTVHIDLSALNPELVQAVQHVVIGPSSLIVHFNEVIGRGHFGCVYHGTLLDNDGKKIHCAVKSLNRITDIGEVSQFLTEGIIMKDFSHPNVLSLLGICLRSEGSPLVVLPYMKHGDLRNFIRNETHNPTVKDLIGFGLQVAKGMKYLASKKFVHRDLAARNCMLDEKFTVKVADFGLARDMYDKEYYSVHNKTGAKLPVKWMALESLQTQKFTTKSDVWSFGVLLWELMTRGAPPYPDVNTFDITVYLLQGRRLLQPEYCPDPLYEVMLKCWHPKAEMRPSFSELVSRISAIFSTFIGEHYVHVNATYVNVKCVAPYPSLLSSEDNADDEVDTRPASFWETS

Structure (SMILES) | IC50
Cn1cc(-c2cnc(-c3cccc(Cc4nn(-c5cnn(C)c5)ccc4=O)c3)nc2)cn1 [Example 154, 1-(1-methyl-1H-pyrazol-4-yl)-3-{3-[5-(1-methyl-1H-pyrazol-4-yl)pyrimidin-2-yl]benzyl}pyridazin-4(1H)-one] | < 100 nM
Cn1cc(-c2cnc(-c3cccc(Cc4nn(-c5ccc(F)c(F)c5)ccc4=O)c3)nc2)cn1 [Example 156, 1-(3,4-difluorophenyl)-3-{3-[5-(1-methyl-1H-pyrazol-4-yl)pyrimidin-2-yl]benzyl}pyridazin-4(1H)-one] | < 100 nM
CCn1cc(-n2ccc(=O)c(Cc3cccc(-c4ncc(-c5cnn(C)c5)cn4)c3)n2)cn1 [Example 157, 1-(1-ethyl-1H-pyrazol-4-yl)-3-{3-[5-(1-methyl-1H-pyrazol-4-yl)pyrimidin-2-yl]benzyl}pyridazin-4(1H)-one] | < 100 nM
Cn1cc(-n2ccc(=O)c(Cc3cccc(-c4ncc(NC(=O)OC(C)(C)C)cn4)c3)n2)cn1 [Example 159, tert-butyl [2-(3-{[1-(1-methyl-1H-pyrazol-4-yl)-4-oxo-1,4-dihydropyridazin-3-yl]methyl}phenyl)pyrimidin-5-yl]carbamate] | < 100 nM
CCOc1cnc2ccc(Cc3nn(-c4cnn(CC)c4)ccc3=O)cc2c1 [Example 160, 3-[(3-ethoxyquinolin-6-yl)methyl]-1-(1-ethyl-1H-pyrazol-4-yl)pyridazin-4(1H)-one] | 100 to 1000 nM
COCc1cnc(-c2cccc(Cc3nn(-c4cnn(C)c4)ccc3=O)c2)nc1 [Example 161, 3-{3-[5-(methoxymethyl)pyrimidin-2-yl]benzyl}-1-(1-methyl-1H-pyrazol-4-yl)pyridazin-4(1H)-one] | < 100 nM
CCOCc1cnc(-c2cccc(Cc3nn(-c4cnn(C)c4)ccc3=O)c2)nc1 [Example 162, 3-{3-[5-(ethoxymethyl)pyrimidin-2-yl]benzyl}-1-(1-methyl-1H-pyrazol-4-yl)pyridazin-4(1H)-one] | < 100 nM
CCn1cc(-n2ccc(=O)c(Cc3cccc(-c4ncc(COC)cn4)c3)n2)cn1 [Example 163, 1-(1-ethyl-1H-pyrazol-4-yl)-3-{3-[5-(methoxymethyl)pyrimidin-2-yl]benzyl}pyridazin-4(1H)-one] | < 100 nM
Cn1cc(-n2ccc(=O)c(Cc3cccc(-c4ncc(C(C)(C)O)cn4)c3)n2)cn1 [Example 167, 3-{3-[5-(1-hydroxy-1-methylethyl)pyrimidin-2-yl]benzyl}-1-(1-methyl-1H-pyrazol-4-yl)pyridazin-4(1H)-one] | < 100 nM
COC(C)(C)c1cnc(-c2cccc(Cc3nn(-c4cnn(C)c4)ccc3=O)c2)nc1 [Example 168, 3-{3-[5-(1-methoxy-1-methylethyl)pyrimidin-2-yl]benzyl}-1-(1-methyl-1H-pyrazol-4-yl)pyridazin-4(1H)-one] | 100 to 1000 nM
CCOC(C)(C)c1cnc(-c2cccc(Cc3nn(-c4cnn(C)c4)ccc3=O)c2)nc1 [Example 169, 3-{3-[5-(1-ethoxy-1-methylethyl)pyrimidin-2-yl]benzyl}-1-(1-methyl-1H-pyrazol-4-yl)pyridazin-4(1H)-one] | 100 to 1000 nM
Cn1cc(-n2ccc(=O)c(Cc3cccc(-c4ncc(C5=CCOC5)cn4)c3)n2)cn1 [Example 175, 3-{3-[5-(2,5-dihydrofuran-3-yl)pyrimidin-2-yl]benzyl}-1-(1-methyl-1H-pyrazol-4-yl)pyridazin-4(1H)-one] | < 100 nM
CCCCc1nc(-c2cccc(Cc3nn(-c4cnn(C)c4)ccc3=O)c2)ncc1OCC [Example 176, 3-[3-(4-butyl-5-ethoxypyrimidin-2-yl)benzyl]-1-(1-methyl-1H-pyrazol-4-yl)pyridazin-4(1H)-one] | < 100 nM
CCOc1cnc(-c2cccc(Cc3nn(-c4cnn(C)c4)ccc3=O)c2)nc1C [Example 177, 3-[3-(5-ethoxy-4-methylpyrimidin-2-yl)benzyl]-1-(1-methyl-1H-pyrazol-4-yl)pyridazin-4(1H)-one] | < 100 nM
CCOc1cnc(-c2cccc(Cc3nn(-c4cnn(C)c4)ccc3=O)c2)nc1CC [Example 178, 3-[3-(5-ethoxy-4-ethylpyrimidin-2-yl)benzyl]-1-(1-methyl-1H-pyrazol-4-yl)pyridazin-4(1H)-one] | < 100 nM
COC(=O)CCCn1cc(-n2ccc(=O)c(Cc3cccc(NC(=O)OCC(C)C)c3)n2)cn1 [Example 179, methyl 4-{4-[3-(3-{[(2-methylpropoxy)carbonyl]amino}benzyl)-4-oxopyridazin-1(4H)-yl]-1H-pyrazol-1-yl}butanoate] | < 100 nM
CC(C)COC(=O)Nc1cccc(Cc2nn(-c3cnn(CCCC(=O)O)c3)ccc2=O)c1 [Example 180, 4-{4-[3-(3-{[(2-methylpropoxy)carbonyl]amino}benzyl)-4-oxopyridazin-1(4H)-yl]-1H-pyrazol-1-yl}butanoic acid] | < 100 nM
CC(C)COC(=O)Nc1cccc(Cc2nn(-c3cnn(CC(=O)O)c3)ccc2=O)c1 [Example 181, {4-[3-(3-{[(2-methylpropoxy)carbonyl]amino}benzyl)-4-oxopyridazin-1(4H)-yl]-1H-pyrazol-1-yl}acetic acid] | < 100 nM
CC(C)COC(=O)Nc1cccc(Cc2nn(-c3cnn(CCC(=O)O)c3)ccc2=O)c1 [Example 182, 3-{4-[3-(3-{[(2-methylpropoxy)carbonyl]amino}benzyl)-4-oxopyridazin-1(4H)-yl]-1H-pyrazol-1-yl}propanoic acid] | < 100 nM
Cn1cc(-n2ccc(=O)c(Cc3ccc4[nH]ncc4c3)n2)cn1 [Example 184, 3-(1H-Indazol-5-ylmethyl)-1-(1-methyl-1H-pyrazol-4-yl)pyridazin-4(1H)-one] | 100 to 1000 nM
CCCc1nc(-c2cccc(Cc3nn(-c4cnn(C)c4)ccc3=O)c2)n[nH]1 [Example 185, 1-(1-Methyl-1H-pyrazol-4-yl)-3-[3-(5-propyl-1H-1,2,4-triazol-3-yl)benzyl]pyridazin-4(1H)-one] | 100 to 1000 nM
Cn1cc(-n2ccc(=O)c(Cc3cccc(-c4nc[nH]n4)c3)n2)cn1 [Example 186, 1-(1-Methyl-1H-pyrazol-4-yl)-3-[3-(1H-1,2,4-triazol-3-yl)benzyl]pyridazin-4(1H)-one hydrochloride] | < 100 nM
O=c1ccn(-c2ccc(F)c(F)c2)nc1Cc1cccc(-c2ncc(O)cn2)c1 [Example 188, 1-(3,4-Difluorophenyl)-3-[3-(5-hydroxypyrimidin-2-yl)benzyl]pyridazin-4(1H)-one] | 100 to 1000 nM
Cn1cc(-n2ccc(=O)c(Cc3cccc(-c4ncc(CO)cn4)c3)n2)cn1 [Example 190, 3-{3-[5-(Hydroxymethyl)pyrimidin-2-yl]benzyl}-1-(1-methyl-1H-pyrazol-4-yl)pyridazin-4(1H)-one] | < 100 nM
CCn1cnc(-c2cccc(Cc3nn(-c4cnn(CCO)c4)ccc3=O)c2)n1 [Example 191, 3-[3-(1-Ethyl-1H-1,2,4-triazol-3-yl)benzyl]-1-[1-(2-hydroxyethyl)-1H-pyrazol-4-yl]pyridazin-4(1H)-one] | < 100 nM

Further lines, results first:

IC50 | Structure (SMILES)
< 100 nM | Cn1cc(-c2cnc(-c3cccc(Cc4nn(-c5cc(F)cc(C#N)c5)ccc4=O)c3)nc2)cn1 [Example 155, 3-fluoro-5-[3-{3-[5-(1-methyl-1H-pyrazol-4-yl)pyrimidin-2-yl]benzyl}-4-oxopyridazin-1(4H)-yl]benzonitrile]
< 100 nM | Cn1cc(-c2cnc(-c3cccc(Cc4nn(-c5cc(Cl)cc(C#N)c5)ccc4=O)c3)nc2)cn1 [Example 158, 3-chloro-5-[3-{3-[5-(1-methyl-1H-pyrazol-4-yl)pyrimidin-2-yl]benzyl}-4-oxopyridazin-1(4H)-yl]benzonitrile]
< 100 nM | Cn1cc(-n2ccc(=O)c(Cc3cccc(-c4ncc(OC5COC5)cn4)c3)n2)cn1 [Example 164, 1-(1-methyl-1H-pyrazol-4-yl)-3-{3-[5-(oxetan-3-yloxy)pyrimidin-2-yl]benzyl}pyridazin-4(1H)-one]
< 100 nM | CCn1cc(-n2ccc(=O)c(Cc3cccc(-c4ncc(OC5COC5)cn4)c3)n2)cn1 [Example 165, 1-(1-ethyl-1H-pyrazol-4-yl)-3-{3-[5-(oxetan-3-yloxy)pyrimidin-2-yl]benzyl}pyridazin-4(1H)-one]
< 100 nM | CN1CCC(COc2cnc(-c3cccc(Cc4nn(-c5cc(F)cc(C#N)c5)ccc4=O)c3)nc2)CC1 [Example 170, 3-fluoro-5-[3-(3-{5-[(1-methylpiperidin-4-yl)methoxy]pyrimidin-2-yl}benzyl)-4-oxopyridazin-1(4H)-yl]benzonitrile]
< 100 nM | CN1CCC(COc2cnc(-c3cccc(Cc4nn(-c5cccc(C#N)c5)ccc4=O)c3)nc2)CC1 [Example 171, 3-[3-(3-{5-[(1-methylpiperidin-4-yl)methoxy]pyrimidin-2-yl}benzyl)-4-oxopyridazin-1(4H)-yl]benzonitrile]
< 100 nM | CCn1cc(-n2ccc(=O)c(Cc3cccc(-c4ncc(OCC5CCN(C)CC5)cn4)c3)n2)cn1 [Example 172, 1-(1-ethyl-1H-pyrazol-4-yl)-3-(3-{5-[(1-methylpiperidin-4-yl)methoxy]pyrimidin-2-yl}benzyl)pyridazin-4(1H)-one]
< 100 nM | CN1CCC(COc2cnc(-c3cccc(Cc4nn(-c5cc(F)cc(F)c5)ccc4=O)c3)nc2)CC1 [Example 173, 1-(3,5-difluorophenyl)-3-(3-{5-[(1-methylpiperidin-4-yl)methoxy]pyrimidin-2-yl}benzyl)pyridazin-4(1H)-one]
< 100 nM | Cn1cc(-n2ccc(=O)c(Cc3cccc(-c4ncc(N)cn4)c3)n2)cn1 [Example 183, 3-[3-(5-Aminopyrimidin-2-yl)benzyl]-1-(1-methyl-1H-pyrazol-4-yl)pyridazin-4(1H)-one]
100 to 1000 nM | Cn1cc(-n2ccc(=O)c(Cc3cccc(-c4ncc(O)cn4)c3)n2)cn1 [Example 187, 3-[3-(5-Hydroxypyrimidin-2-yl)benzyl]-1-(1-methyl-1H-pyrazol-4-yl)pyridazin-4(1H)-one]
< 100 nM | CCOc1cnc(-c2cccc(Cc3nn(-c4cnn(CCO)c4)ccc3=O)c2)nc1 [Example 193, 3-[3-(5-ethoxypyrimidin-2-yl)benzyl]-1-[1-(2-hydroxyethyl)-1H-pyrazol-4-yl]pyridazin-4(1H)-one]
